Experimental findings from US9187490B2, “Dimeric IAP inhibitors” (TetraLogic Pharmaceuticals Corporation, priority 2005, dated 2015) are described below.

Like-named read-outs stand apart in the source and are kept apart here.

The target in this test is T1, XIAP-BIR3 (Homo sapiens, UniProt P98170).
T1 construct: 40 nM of XIAP-BIR3 for 15 min at RT
Briefly: XIAP BIR-3 fluorescence polarization binding assay. Conditions: read-out: KD Range. On the procedure:
Following incubation, the polarization values (mP) were measured on a Victor^2V using a 485 nm excitation filter and a 520 nm emission filter. IC50 values were determined from the plot using nonlinear least-squares analysis using GraphPad Prism.
A general note: Polarisation of emitted light reports the rotation of a fluorescent probe.

Where [1] appears, read: 5 nM AbuRPF-K(5-Fam)-NH2, 40 nM XIAP-BIR3, 15 min RT, pH 7.5.

T1 sequence (P98170 241-356 limits assumed): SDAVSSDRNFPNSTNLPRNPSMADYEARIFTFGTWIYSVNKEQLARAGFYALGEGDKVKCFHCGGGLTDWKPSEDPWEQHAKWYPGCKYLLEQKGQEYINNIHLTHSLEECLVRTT

As a reminder, the Kd is the concentration at which binding is half-saturated. As to `CNC(C)C(=O)NC1CC=CCC(NC(=O)C(C)NC)C(=O)N2CCCC2Cc2c3n(c4cc(F)ccc24)CCn2c-3c(c3ccc(F)cc32)CC2CCCN2C1=O` (stereo not drawn) [Entry 95], the Kd under setting [1] was less than 100 nM.
For `CN[C@@H](C)C(=O)N[C@H](C(=O)N1CCC[C@H]1Cc1c(-c2ccc(-c3c(C[C@@H]4CCCN4C(=O)[C@@H](NC(=O)[C@H](C)NC)C(C)C)c4ccc(F)cc4n3CCO)cc2)n(CCO)c2cc(F)ccc12)C(C)C` [Entry 46], the equilibrium dissociation constant (Kd) under setting [1] is less than 100 nM.
For the molecule `CC(C)[C@H](NC(=O)[C@H](C)N)C(=O)N1CCC[C@H]1Cc1c(CCc2oc3ccccc3c2C[C@@H]2CCCN2C(=O)[C@@H](NC(=O)[C@H](C)N)C(C)C)oc2ccccc12` [Entry 3], the Kd under setting [1] was less than 100 nM.
For the molecule `CN[C@@H](C)C(=O)N[C@H](C(=O)N1CCC[C@H]1Cc1c(-c2ccc(-c3c(C[C@@H]4CCCN4C(=O)[C@@H](NC(=O)[C@H](C)NC)C(C)C)c4cc(F)ccc4n3CCO)cc2)n(CCO)c2ccc(F)cc12)C(C)C` [Entry 55], the Kd under setting [1] was less than 100 nM.
In the case of `CNC(C)C(=O)NC(C(=O)N1CC(O)CC1Cc1c(-c2[nH]c3cc(F)ccc3c2CC2CC(O)CN2C(=O)C(NC(=O)C(C)NC)C(C)O)[nH]c2cc(F)ccc12)C(C)O` (stereo not drawn) [Entry 86], the Kd (Example 4 series) was less than 100 nM.
In the case of `CC[C@H](N)C(=O)N[C@H](C(=O)N1CCC[C@H]1Cc1c(-c2ccc(-c3oc4ccccc4c3C[C@@H]3CCCN3C(=O)[C@@H](NC(=O)[C@@H](N)CC)C3CCCCC3)cc2)oc2ccccc12)C1CCCCC1` [Entry 14], under setting [1], the Kd is 100 to 1000 nM.
As for `CN[C@@H](C)C(=O)N[C@H](C(=O)N1CCC[C@H]1Cc1c(-c2ccc(-c3oc4ccccc4c3C[C@@H]3CCCN3C(=O)[C@@H](NC(=O)[C@H](C)NC)[C@@H](C)O)cc2)oc2ccccc12)[C@@H](C)O` [Entry 15], under setting [1], the dissociation constant Kd was less than 100 nM.
Turning to `CN[C@@H](C)C(=O)N[C@H](C(=O)N1CCC[C@H]1Cc1c(C)n(CCOCCn2c(C)c(C[C@@H]3CCCN3C(=O)[C@@H](NC(=O)[C@H](C)NC)C3CCCCC3)c3cc(F)ccc32)c2ccc(F)cc12)C1CCCCC1` [Entry 127], the Kd (Example 9 series) is less than 100 nM.
On to `CN[C@@H](C)C(=O)N[C@H](C(=O)N1CCC[C@H]1Cc1c(-c2ccc(-c3[nH]c4cc(F)ccc4c3C[C@@H]3CCCN3C(=O)[C@@H](NC(=O)[C@H](C)NC)[C@@H](C)O)cc2)[nH]c2cc(F)ccc12)[C@@H](C)O` [Entry 27], for which the Kd under setting [1] is less than 100 nM.
Regarding `CN[C@@H](C)C(=O)N[C@H](C(=O)N1CCC[C@H]1Cc1c(-c2ccc(-c3c(C[C@@H]4CCCN4C(=O)[C@@H](NC(=O)[C@H](C)NC)C(C)C)c4ccc(F)cc4n3CCOC(C)=O)cc2)[nH]c2cc(F)ccc12)C(C)C` [Entry 64], the dissociation constant (Kd) under setting [1] is less than 100 nM.
Turning to `CNC(C)C(=O)NC(C(=O)N1CCCC1Cc1c(-c2[nH]c3cc(F)ccc3c2CC2CCCN2C(=O)C(NC(=O)C(C)NC)C(C)O)[nH]c2cc(F)ccc12)C(C)O` (stereo not drawn) [Entry 78], the Kd (Example 4 series) is less than 100 nM.
`CN[C@@H](C)C(=O)N[C@H](C(=O)N1C[C@@H](O)C[C@H]1Cc1c(-c2ccc(-c3[nH]c4ccc(F)cc4c3C[C@@H]3C[C@H](O)CN3C(=O)[C@@H](NC(=O)[C@H](C)NC)C(C)(C)C)cc2)[nH]c2ccc(F)cc12)C(C)(C)C` [Entry 41]: the Kd under setting [1] is less than 100 nM.
Same read-out and setting: for `CC(C)[C@H](NC(=O)CN)C(=O)N1CCC[C@H]1Cc1c(-c2ccc(-c3oc4ccccc4c3C[C@@H]3CCCN3C(=O)[C@@H](NC(=O)[C@H](C)N)C(C)C)cc2)oc2ccccc12` [Entry 4] the value was less than 100 nM; for `CN[C@@H](C)C(=O)N[C@H](C(=O)N1CCC[C@H]1Cc1c(-c2ccc(-c3c(C[C@@H]4CCCN4C(=O)[C@@H](NC(=O)[C@H](C)NC)[C@@H](C)O)c4cc(F)ccc4n3CCO)cc2)n(CCO)c2ccc(F)cc12)[C@@H](C)O` [Entry 56], less than 100 nM.
Still for that read-out and setting: for `CN[C@@H](C)C(=O)N[C@H](C(=O)N1C[C@@H](O)C[C@H]1Cc1c(-c2ccc(-c3[nH]c4ccccc4c3C[C@@H]3C[C@H](O)CN3C(=O)[C@@H](NC(=O)[C@H](C)NC)C(C)(C)C)cc2)[nH]c2ccccc12)C(C)(C)C` [Entry 24] the value was less than 100 nM.
Take `CN[C@@H](C)C(=O)N[C@H](C(=O)N1CCC[C@H]1Cc1c(-c2ccc(-c3c(C[C@@H]4CCCN4C(=O)[C@@H](NC(=O)[C@H](C)NC)C(C)C)c4ccc(F)cc4n3CCOC(C)=O)cc2)n(CCOC(C)=O)c2cc(F)ccc12)C(C)C` [Entry 47]: the Kd under setting [1] was less than 100 nM.
Still for that read-out and setting: for `CN[C@@H](C)C(=O)N[C@H](C(=O)N1C[C@@H](O)C[C@H]1Cc1c(-c2ccc(-c3[nH]c4cc(F)ccc4c3C[C@@H]3C[C@H](O)CN3C(=O)[C@@H](NC(=O)[C@H](C)NC)[C@@H](C)O)cc2)[nH]c2cc(F)ccc12)[C@@H](C)O` [Entry 28] the value was less than 100 nM; for `CN[C@@H](C)C(=O)N[C@H](C(=O)N1CCC[C@H]1Cc1c(-c2ccc(-c3c(C[C@@H]4CCCN4C(=O)[C@@H](NC(=O)[C@H](C)NC)[C@@H](C)O)c4ccc(F)cc4n3CCOC)cc2)n(CCOC)c2cc(F)ccc12)[C@@H](C)O` [Entry 50], less than 100 nM; for `CN[C@@H](C)C(=O)N[C@H](C(=O)N1CCC[C@H]1Cc1c(-c2ccc(-c3c(C[C@@H]4CCCN4C(=O)[C@@H](NC(=O)[C@H](C)NC)C(C)(C)C)c4ccc(F)cc4n3C)cc2)n(C)c2cc(F)ccc12)C(C)(C)C` [Entry 59], less than 100 nM.
Consider `CNC(C)C(=O)NC(C(=O)N1CC(O)CC1Cc1c(-c2[nH]c3cc(F)ccc3c2CC2CC(O)CN2C(=O)C(NC(=O)C(C)NC)C(C)OC)[nH]c2cc(F)ccc12)C(C)OC` (stereo not drawn) [Entry 88], for which the dissociation constant Kd (Example 4 series) was less than 100 nM.
As for `CN[C@@H](C)C(=O)N[C@H](C(=O)N1C[C@@H](O)C[C@H]1Cc1c(-c2ccc(-c3[nH]c4cc(F)ccc4c3C[C@@H]3C[C@H](O)CN3C(=O)[C@@H](NC(=O)[C@H](C)NC)C(C)(C)C)cc2)[nH]c2cc(F)ccc12)C(C)(C)C` [Entry 30], the Kd under setting [1] is less than 100 nM.
Still for that read-out and setting: for `CN[C@@H](C)C(=O)N[C@H](C(=O)N1CCC[C@H]1Cc1c(-c2ccc(-c3c(C[C@@H]4CCCN4C(=O)[C@@H](NC(=O)[C@H](C)N)[C@@H](C)O)c4ccc(F)cc4n3CCO)cc2)n(CCO)c2cc(F)ccc12)[C@@H](C)O` [Entry 43] the value was less than 100 nM; for `C[C@H](N)C(=O)N[C@H](C(=O)N1CCC[C@H]1Cc1c(-c2ccc(-c3oc4ccccc4c3C[C@@H]3CCCN3C(=O)[C@@H](NC(=O)[C@H](C)N)C(C)(C)C)cc2)oc2ccccc12)C(C)(C)C` [Entry 7], less than 100 nM; for `CN[C@@H](C)C(=O)N[C@H](C(=O)N1CCC[C@H]1Cc1c(-c2ccc(-c3c(C[C@@H]4CCCN4C(=O)[C@@H](NC(=O)[C@H](C)NC)C(C)(C)C)c4cc(F)ccc4n3CCO)cc2)n(CCO)c2ccc(F)cc12)C(C)(C)C` [Entry 54], less than 100 nM.
Consider `CC(N)C(=O)NC(C(=O)N1CCCC1Cc1c(-c2ccc(-c3oc4ccccc4c3CC3CCCN3C(=O)C(NC(=O)C(C)N)C(C)C)cc2)oc2ccccc12)C(C)C` (single isomer, unassigned) [Entry 61], for which the Kd under setting [1] is more than 10000 nM.
As for `CN[C@@H](C)C(=O)N[C@H](C(=O)N1CCC[C@H]1Cc1cn(CC#CC#CCn2cc(C[C@@H]3CCCN3C(=O)[C@@H](NC(=O)[C@H](C)NC)C3CCCCC3)c3ccccc32)c2ccccc12)C1CCCCC1` [Entry 120], the Kd under setting [1] was less than 100 nM.
`CN[C@@H](C)C(=O)N[C@H](C(=O)N1C[C@@H](O)C[C@H]1Cc1c(-c2[nH]c3cc(F)ccc3c2C[C@@H]2C[C@H](O)CN2C(=O)[C@@H](NC(=O)[C@H](C)NC)[C@H](C)OC(C)(C)C)[nH]c2cc(F)ccc12)[C@H](C)OC(C)(C)C` [Entry 114]: the Kd (Example 7 series) was less than 100 nM.
For `CNC(C)C(=O)NC(C(=O)N1CCCC1Cc1c(-c2[nH]c3ccc(F)cc3c2CC2CCCN2C(=O)C(NC(=O)C(C)NC)C(C)O)[nH]c2ccc(F)cc12)C(C)O` (stereo not drawn) [Entry 80], the Kd (Example 4 series) was less than 100 nM.
As to `CN[C@@H](C)C(=O)N[C@H](C(=O)N1CCC[C@H]1Cc1c(-c2ccc(-c3[nH]c4ccc(F)cc4c3C[C@@H]3CCCN3C(=O)[C@@H](NC(=O)[C@H](C)NC)C(C)C)cc2)[nH]c2ccc(F)cc12)C(C)C` [Entry 23], the dissociation constant (Kd) under setting [1] is less than 100 nM.
Still for that read-out and setting: for `CN[C@@H](C)C(=O)N[C@H](C(=O)N1CCC[C@H]1Cc1c(-c2ccc(-c3c(C[C@@H]4CCCN4C(=O)[C@@H](NC(=O)[C@H](C)N)[C@@H](C)O)c4ccc(F)cc4n3CCOC(C)=O)cc2)n(CCOC(C)=O)c2cc(F)ccc12)[C@@H](C)O` [Entry 45] the value was less than 100 nM.
`CN[C@@H](C)C(=O)N[C@H](C(=O)N1CCC[C@H]1Cc1cn(CCOCCn2cc(C[C@@H]3CCCN3C(=O)[C@@H](NC(=O)[C@H](C)NC)[C@@H](C)O)c3ccc(F)cc32)c2cc(F)ccc12)[C@@H](C)O` [Entry 124]: under “Example 9 series”, the Kd is less than 100 nM.
For the molecule `CN[C@@H](C)C(=O)N[C@H](C(=O)N1CCC[C@H]1Cc1c(-c2ccc(-c3[nH]c4cc(F)ccc4c3C[C@@H]3CCCN3C(=O)[C@@H](NC(=O)[C@H](C)NC)C3CCCCC3)s2)[nH]c2cc(F)ccc12)C1CCCCC1` [Entry 18], under setting [1], the Kd is less than 100 nM.
Still for that read-out and setting: for `CN[C@@H](C)C(=O)N[C@H](C(=O)N1C[C@H](O)C[C@H]1Cc1c(-c2ccc(-c3[nH]c4ccccc4c3C[C@@H]3C[C@@H](O)CN3C(=O)[C@@H](NC(=O)[C@H](C)NC)C(C)C)cc2)[nH]c2ccccc12)C(C)C` [Entry 21] the value was 100 to 1000 nM.
Same read-out and setting: for `CN[C@@H](C)C(=O)N[C@H](C(=O)N1C[C@@H](O)C[C@H]1Cc1c(-c2ccc(-c3[nH]c4ccc(F)cc4c3C[C@@H]3C[C@H](O)CN3C(=O)[C@@H](NC(=O)[C@H](C)NC)C(C)C)cc2)[nH]c2ccc(F)cc12)C(C)C` [Entry 40] the value was 100 to 1000 nM.
Consider `COCCn1c(-c2ccc(-c3c(C[C@@H]4CCCN4C(=O)[C@@H](NC(=O)[C@H](C)N)C(C)C)c4ccc(F)cc4n3CCOC)cc2)c(C[C@@H]2CCCN2C(=O)[C@@H](NC(=O)[C@H](C)N)C(C)C)c2ccc(F)cc21` [Entry 53], for which the Kd under setting [1] is less than 100 nM.
Take `CN[C@@H](C)C(=O)N[C@H](C(=O)N1CCC[C@H]1Cc1c(-c2[nH]c3ccccc3c2C[C@@H]2CCCN2C(=O)[C@@H](NC(=O)[C@H](C)NC)[C@@H](C)O)[nH]c2ccccc12)[C@@H](C)O` [Entry 105]: the Kd (Example 7 series) is less than 100 nM.
